Experimental data reported in PMC12461339, “Benzoylselenoureas: A Novel Dual-Action Inhibitor Targeting Fungal Growth and Urease Activity in Cryptococcus neoformans” (ACS Omega, 2025).
Converted amounts (≈) assume the structure as drawn. “And” between values parts separate entries of the source, which are not always exact repeats. Equal entries are not always repeated. Where two headings read alike, the source gives them in different places.

Tests used:
C. neoformans H99 [1] = assay: Broth microdilution antifungal assay (MIC) in RPMI or urea medium; type: cell-based; details: Cryptococcus neoformans
Experimental: (§1) C. neoformans H99 (or ATCC 208821), a standard strain, was used to evaluate the antifungal activity of BSU1-BSU11 and BTU1-BTU11 compounds using the broth microdilution method. The assay was performed in two different culture media: the standard medium RPMI 1640 buffered with […] (RMPI), and the Christensen broth (urea medium: 1 g/L peptone, 1 g/L dextrose, 5 g/L sodium chloride, 2 g/L potassium phosphate, 20 g/L urea, 12 mg/L phenol red, pH 7.0). The compounds were dissolved in dimethyl sulfoxide (DMSO) and diluted in both media, obtaining final concentrations from 0.03 to 128 mg/L in a 96-well plate and final DMSO concentration below 0.5%, considered nontoxic. For assay, yeasts were distributed in each well to obtain a final inoculum of 0.5–2.5 × 10^3 CFU/mL, and the plate was incubated at 35 °C for 48 h.
(§2) The MIC values were determined in both media and were defined as the lowest concentrations of BSU1-BSU11 and BTU1-BTU11 that inhibited 50% of fungal growth visually compared with untreated yeasts (growth control). In addition, the urease activity was indicated by medium color change from orange to pink due to ammonia production and the MICure was defined as the lowest concentration that inhibited the urease activity by visual inspection in urea medium with no color changes. For both assays, two controls were included: untreated yeast group for observation of fungal growth pattern or intracellular urease activity, and wells containing only medium for assay sterility control.

yeast urease activity = molecular target: T1, yeast urease activity (Cryptococcus neoformans, UniProt O13465); assay: Inhibition of yeast urease activity in urea (Christensen) medium, colour change (MICure); type: cell-based
T1 construct: endogenous in cells; host or cells: Cryptococcus neoformans H99 (ATCC 208821) yeasts in Christensen urea broth
T1 sequence (O13465 whole entry): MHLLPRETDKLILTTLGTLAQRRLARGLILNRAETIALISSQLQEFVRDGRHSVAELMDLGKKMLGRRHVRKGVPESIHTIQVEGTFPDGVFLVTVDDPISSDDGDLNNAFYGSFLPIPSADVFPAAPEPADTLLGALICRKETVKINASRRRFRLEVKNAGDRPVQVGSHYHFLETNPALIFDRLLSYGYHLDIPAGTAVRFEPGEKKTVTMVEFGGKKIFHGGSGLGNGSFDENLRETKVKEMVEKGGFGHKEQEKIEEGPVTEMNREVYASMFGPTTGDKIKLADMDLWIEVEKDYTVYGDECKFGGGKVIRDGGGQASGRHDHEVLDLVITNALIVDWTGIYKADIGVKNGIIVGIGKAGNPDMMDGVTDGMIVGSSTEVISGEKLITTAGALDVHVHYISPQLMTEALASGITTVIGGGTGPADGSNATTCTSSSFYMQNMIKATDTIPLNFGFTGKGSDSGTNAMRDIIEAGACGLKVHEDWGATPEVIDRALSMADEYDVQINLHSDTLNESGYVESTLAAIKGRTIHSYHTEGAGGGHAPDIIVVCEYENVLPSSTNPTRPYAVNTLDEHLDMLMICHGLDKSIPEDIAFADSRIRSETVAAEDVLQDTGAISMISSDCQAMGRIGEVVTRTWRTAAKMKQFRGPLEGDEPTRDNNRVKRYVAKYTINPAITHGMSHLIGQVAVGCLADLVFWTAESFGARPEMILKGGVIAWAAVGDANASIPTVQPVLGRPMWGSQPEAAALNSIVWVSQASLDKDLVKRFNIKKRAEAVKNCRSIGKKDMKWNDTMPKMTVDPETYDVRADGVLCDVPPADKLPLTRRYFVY
Experimental: The inhibitory activity against yeast urease was assessed using Christensen’s medium, which contains urea to induce URE1 gene expression. […] Even in the presence of fungal growth, inhibition of urease activity was evidenced by the absence of medium color change, indicating suppressed ammonia production.
as §1, §2

C. neoformans H99 [2] = assay: Minimum fungicidal concentration by subculturing after MIC reading; type: cell-based; details: Cryptococcus neoformans
Experimental: After MIC readings, the MFC values were determined by subculturing, at 35 °C for 48 h, of all concentrations that inhibited the fungal growth; and then MFC was defined as the lowest concentration of the compound capable of reducing ≥99% viability of the initial fungal inoculum. ,

C. neoformans urease = molecular target: T2, C. neoformans urease (Cryptococcus neoformans, UniProt O13465); assay: Urease activity in crude protein extract, indophenol method; type: biochemical; details: ureIC50, BSU series
T2 construct: endogenous in cells; host or cells: Cryptococcus neoformans H99, lysed by sonication; dialysed and lyophilised soluble fraction (total protein)
T2 sequence (O13465 whole entry): as above
Experimental: C. neoformans H99 yeasts were cultivated in 100 mL of Christensen broth for 72 h at 35 °C by shaking at 200 rpm for the obtention of urease as previously described. Briefly, the yeasts were ruptured using a lysis buffer (40 mM Tris-HCl, 20 mM dithiothreitol, 4% Triton X-100, 1 mM ethylenediaminetetraacetic acid, 2 mM phenylmethylsulfonyl fluoride, protease inhibitor cocktail) and an ultrasonic sonicator. After centrifugation, the soluble fraction was dialyzed in a dialysis membrane submerged in 10 mM sodium phosphate buffer, pH 7.0; the sample was lyophilized and stored at −20 °C. Before the assay, the sample was resuspended in 1 mL of sodium phosphate buffer (10 mM, pH 7.0), and the total protein was quantified by the Bradford method.
The urease activity was determined by the indophenol method. In a 96-well microplate, 10 μL of 100 mM urea was added to 45 μL of total protein and 45 μL of BSU1-BSU11 (concentrations of 0.06–1000 μg/L) in phosphate buffer. The reaction was maintained for 10 min under shaking at 600 rpm, at room temperature. Then, 45 μL of solution A (1% phenol; 0.005% sodium nitroprusside) and 70 μL of solution B (0.5% sodium hydroxide; 0.1% sodium hypochlorite) were immediately added to the wells in the dark and incubated for 5 min at 50 °C under shaking at 600 rpm. Urease activity was quantified by measuring absorbance at 670 nm. The inhibitory concentration capable of inhibiting 50% of urease activity (ureIC50) was determined by nonlinear regression calculation using the GraphPad Prism 5.0 software.

[3] = H99, BTU series, 50% inhibition of fungal growth, RPMI medium, read-out: MIC RPMI
[4] = H99, BTU series, 50% inhibition of fungal growth, urea medium, read-out: MIC urea
[5] = H99, Table S1, RPMI medium, C. neoformans H99, read-out: MIC
[6] = H99, Table S1, urea medium, C. neoformans H99, read-out: MIC
[7] = BTU series, 100% inhibition of yeast urease activity in urea medium
[8] = Table S1, urea medium, 100% inhibition of yeast urease activity
[9] = H99, BTU series, after assay in RPMI medium, read-out: MFC
[10] = H99, Table S1, RPMI medium line, read-out: MFC
[11] = H99, Table S1, urea medium line, read-out: MFC
[12] = H99, 48 h, read-out: MIC RPMI, BSU series, 50% inhibition of fungal growth, RPMI medium, 35 °C, 48 h
[13] = H99, 48 h, read-out: MIC urea, BSU series, 50% inhibition of fungal growth, urea medium, 35 °C, 48 h
[14] = H99, Table S1, RPMI medium, C. neoformans H99
[15] = H99, Table S1, urea medium, C. neoformans H99
[16] = BSU series, 100% inhibition of yeast urease activity in urea medium
[17] = H99, BSU series, after assay in RPMI medium, ≥99% reduction of viability
[18] = H99, Table S1, RPMI medium line
[19] = H99, Table S1, urea medium line
[20] = H99, read-out: MIC RPMI, BTU series, 50% inhibition of fungal growth, RPMI medium
[21] = H99, read-out: MIC urea, BTU series, 50% inhibition of fungal growth, urea medium
[22] = H99, BTU series, after assay in RPMI medium

SMILES | MIC (C. neoformans H99 [1]; [3]) | MIC (C. neoformans H99 [1]; [4]) | MIC (C. neoformans H99 [1]; [5]) | MIC (C. neoformans H99 [1]; [6]) | MICURE (yeast urease activity; [7]) | MICURE (yeast urease activity; [8]) | MFC (C. neoformans H99 [2]; [9]) | MFC (C. neoformans H99 [2]; [10]) | MFC (C. neoformans H99 [2]; [11]) | MIC (C. neoformans H99 [1]; [14]) | MIC (C. neoformans H99 [1]; [15]) | MFC (C. neoformans H99 [2]; [18]) | MFC (C. neoformans H99 [2]; [19]) | further results
COc1ccccc1NC(=S)NC(=O)c1ccccc1 [BTU4] | > 128 µg/mL | 64 µg/mL (≈ 223 µM) | > 128 µg/mL | 1 µg/mL (≈ 3.49 µM) | 32 mg/L | ≤ 0.25 mg/L | > 128 µg/mL | > 128 µg/mL | > 128 µg/mL | – | – | – | – | –
O=C(NC(=S)Nc1ccc(Br)cc1)c1ccccc1 [BTU8] | > 128 µg/mL | 32 µg/mL (≈ 95.5 µM) | > 128 µg/mL | 64 µg/mL (≈ 191 µM) | <0.25 mg/L | 32 mg/L | > 128 µg/mL | > 128 µg/mL | > 128 µg/mL | – | – | – | – | –
O=C(NC(=[Se])Nc1cccc(Cl)c1)c1ccccc1 [BSU7] | – | – | – | – | – | 0.06 mg/L | – | – | – | 4 µg/mL (≈ 11.8 µM) | 0.12 µg/mL (≈ 0.355 µM) | 4 µg/mL (≈ 11.8 µM) | 0.25 µg/mL (≈ 0.74 µM) | MIC (C. neoformans H99 [1]; [12]): 8 µg/mL (≈ 23.7 µM); MIC (C. neoformans H99 [1]; [13]): 0.25 µg/mL (≈ 0.74 µM); MICURE (yeast urease activity; [16]): 0.12 mg/L; IC50 (C. neoformans urease): 7.59 nM and 7.58 nM; MFC (C. neoformans H99 [2]; [17]): 16 µg/mL (≈ 47.4 µM)
COc1cccc(NC(=[Se])NC(=O)c2ccccc2)c1 [BSU5] | – | – | – | – | – | 0.12 mg/L | – | – | – | 8 µg/mL (≈ 24 µM) | 0.25 µg/mL (≈ 0.75 µM) | 16 µg/mL (≈ 48 µM) | 0.25 µg/mL (≈ 0.75 µM) | MIC (C. neoformans H99 [1]; [12]): 1 µg/mL (≈ 3 µM); MIC (C. neoformans H99 [1]; [13]): 0.12 µg/mL (≈ 0.36 µM); MICURE (yeast urease activity; [16]): 0.12 mg/L; IC50 (C. neoformans urease): 14 nM; MFC (C. neoformans H99 [2]; [17]): 1 µg/mL (≈ 3 µM)
CC(C)(C)c1ccc(NC(=[Se])NC(=O)c2ccccc2)cc1 [BSU3] | – | – | – | – | – | 16 mg/L | – | – | – | > 16 µg/mL | 16 µg/mL (≈ 44.5 µM) | > 16 µg/mL | > 16 µg/mL | MIC (C. neoformans H99 [1]; [12]): > 128 µg/mL; MIC (C. neoformans H99 [1]; [13]): > 128 µg/mL; IC50 (C. neoformans urease): 0.95 nM and 0.946 nM; MFC (C. neoformans H99 [2]; [17]): > 128 µg/mL
O=C(NC(=S)Nc1cccc([N+](=O)[O-])c1)c1ccccc1 [BTU11] | – | – | – | – | >128 mg/L | > 128 mg/L | – | – | – | > 128 µg/mL | > 128 µg/mL | > 128 µg/mL | > 128 µg/mL | MIC (C. neoformans H99 [1]; [20]): > 128 µg/mL; MIC (C. neoformans H99 [1]; [21]): > 128 µg/mL; MFC (C. neoformans H99 [2]; [22]): > 128 µg/mL
O=C(NC(=S)Nc1cccc(Br)c1)c1ccccc1 [BTU9] | > 128 µg/mL | 32 µg/mL (≈ 95.5 µM) | 32 µg/mL (≈ 95.5 µM) | 4 µg/mL (≈ 11.9 µM) | 2 mg/L | 4 mg/L | > 128 µg/mL | > 128 µg/mL | 32 µg/mL (≈ 95.5 µM) | – | – | – | – | –
O=C(NC(=S)Nc1ccc(Cl)cc1)c1ccccc1 [BTU6] | > 128 µg/mL | 1 µg/mL (≈ 3.44 µM) | > 128 µg/mL | 32 µg/mL (≈ 110 µM) | <0.25 mg/L | ≤ 0.25 mg/L | > 128 µg/mL | > 128 µg/mL | 128 µg/mL (≈ 440 µM) | – | – | – | – | –
Cc1ccc(NC(=S)NC(=O)c2ccccc2)cc1 [BTU2] | > 128 µg/mL | 32 µg/mL (≈ 118 µM) | > 128 µg/mL | 32 µg/mL (≈ 118 µM) | <0.25 mg/L | ≤ 0.25 mg/L | > 128 µg/mL | > 128 µg/mL | > 128 µg/mL | – | – | – | – | –
O=C(NC(=S)Nc1ccccc1[N+](=O)[O-])c1ccccc1 [BTU10] | – | – | – | – | >128 mg/L | > 128 mg/L | – | – | – | > 128 µg/mL | > 128 µg/mL | > 128 µg/mL | > 128 µg/mL | MIC (C. neoformans H99 [1]; [20]): > 128 µg/mL; MIC (C. neoformans H99 [1]; [21]): > 128 µg/mL; MFC (C. neoformans H99 [2]; [22]): > 128 µg/mL
O=C(NC(=S)Nc1ccccc1)c1ccccc1 [BTU1] | > 128 µg/mL | 32 µg/mL (≈ 125 µM) | > 128 µg/mL | 32 µg/mL (≈ 125 µM) | 32 mg/L | 32 mg/L | > 128 µg/mL | > 128 µg/mL | 128 µg/mL (≈ 499 µM) | – | – | – | – | –
COc1cccc(NC(=S)NC(=O)c2ccccc2)c1 [BTU5] | 32 µg/mL (≈ 112 µM) | 4 µg/mL (≈ 14 µM) | > 128 µg/mL | 4 µg/mL (≈ 14 µM) | 4 mg/L | ≤ 0.25 mg/L | > 128 µg/mL | > 128 µg/mL | > 128 µg/mL | – | – | – | – | –
CC(C)(C)c1ccc(NC(=S)NC(=O)c2ccccc2)cc1 [BTU3] | 8 µg/mL (≈ 25.6 µM) | 1 µg/mL (≈ 3.2 µM) | 8 µg/mL (≈ 25.6 µM) | 1 µg/mL (≈ 3.2 µM) | 0.5 mg/L | 0.5 mg/L | > 128 µg/mL | > 128 µg/mL | 128 µg/mL (≈ 410 µM) | – | – | – | – | –
O=C(NC(=S)Nc1cccc(Cl)c1)c1ccccc1 [BTU7] | > 128 µg/mL | 4 µg/mL (≈ 13.8 µM) | > 128 µg/mL | 32 µg/mL (≈ 110 µM) | <0.25 mg/L | 2 mg/L | > 128 µg/mL | > 128 µg/mL | 64 µg/mL (≈ 220 µM) | – | – | – | – | –
